Measurements reported in patent US8063225B2, “Tricyclic compound derivatives useful in the treatment of neoplastic diseases, inflammatory disorders and immunomodulatory disorders” (Chembridge Corporation, priority 2006, dated 2011).

How the values were obtained:
Alk = target: T1, Alk (Homo sapiens, UniProt Q9UM73); assay: Tyrosine kinase assay (Kinase-Glo or AlphaScreen), Alk; conditions: biochemical tyrosine kinase assay
T1 construct: 6×His- or GST-tagged kinase domain fragments of the corresponding RTKs expressed in baculovirus system; host or cells: baculovirus system
T1 sequence (Q9UM73 1116-1392 limits assumed, species assumed): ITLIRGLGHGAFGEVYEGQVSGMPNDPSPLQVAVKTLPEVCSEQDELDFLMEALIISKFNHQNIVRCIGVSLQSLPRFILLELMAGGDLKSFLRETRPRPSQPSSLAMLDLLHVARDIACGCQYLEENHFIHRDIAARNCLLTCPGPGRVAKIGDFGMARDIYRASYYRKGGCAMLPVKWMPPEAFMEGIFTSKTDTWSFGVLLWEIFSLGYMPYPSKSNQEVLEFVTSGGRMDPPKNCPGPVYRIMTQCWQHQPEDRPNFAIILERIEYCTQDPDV
Method in brief: (§1)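 Recombinant His- or GST-tagged kinase domains from baculovirus were assayed with poly(Glu-Tyr, 4:1) substrate and 10 μM ATP in Tris-HCl pH 7.5 with Mg2+/Mn2+. Kinase-Glo: 37° C for 60 minutes, residual ATP read by luminescence. IC50 from non-linear regression over eight concentrations, 1 nM to 20 μM.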

InsR = target: T2, InsR (Homo sapiens, UniProt P06213); assay: Tyrosine kinase assay (Kinase-Glo or AlphaScreen), InsR; conditions: biochemical tyrosine kinase assay
T2 construct: 6×His- or GST-tagged kinase domain fragments of the corresponding RTKs expressed in baculovirus system; host or cells: baculovirus system
T2 sequence (P06213 1023-1298 limits assumed, species assumed): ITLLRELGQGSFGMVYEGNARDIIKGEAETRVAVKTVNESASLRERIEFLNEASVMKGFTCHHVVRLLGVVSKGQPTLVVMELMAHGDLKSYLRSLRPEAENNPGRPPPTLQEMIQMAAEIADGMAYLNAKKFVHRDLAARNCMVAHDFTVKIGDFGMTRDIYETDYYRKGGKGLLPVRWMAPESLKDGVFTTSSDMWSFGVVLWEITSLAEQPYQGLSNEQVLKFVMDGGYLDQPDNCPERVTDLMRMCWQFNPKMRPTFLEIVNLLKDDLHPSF
Method in brief: as §1

K562 = assay: Cell proliferation inhibition, Cell Titer-Glo, K562; type: cell-based; conditions: Homo sapiens; cell proliferation assay, K562 cells
Method in brief: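 K562 cells were seeded at 2500-5000 cells per well in white, clear-bottomed 384-well culture plates and treated with dilutions of test compounds for typically 3 days. Viable cells were quantified with the Cell Titer-Glo Luminescent Cell Viability Assay (Promega), which measures total ATP, read on a luminescence plate reader to derive IC50 values for proliferation inhibition.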

H929 (multiple myeloma) = assay: Cell proliferation inhibition, Cell Titer-Glo, H929; type: cell-based; conditions: Homo sapiens, NCI-H929; cell proliferation assay, H929 cells
Method: IGF1R and other tyrosine kinase inhibitors can inhibit the proliferation of certain cancer cell lines indicating their possible therapeutic utility for treating the corresponding cancer types. Cancer cell lines of interest and control normal lines, including CHO, HEK293, BA/F3, MM1, H929, COLO205, PC3, DU145, MCF7, Panc1, ACHN, Hep G2, H460, K562, TT, U87-G, CAOV-3, SK-MEL5, Karpas 299, are plated in white, clear-bottomed 384-well cell culture plates at 2500-5000 cells per well and supplied with dilutions of tested compounds After a desired period of time (typically 3 days), the number of viable cells is quantitated by using Cell Titer-Glo Luminescent Cell Viability Assay (Promega), a cell proliferation assay system based on detection of total amount of ATP present as a measure of cell metabolic activity. The plated cells are mixed with the Cell Titer-Glo developing reagent and counted in a luminescence multiwell plate reader according to the standard manufacturer's protocol to generate IC50 curves for cell proliferation inhibition.
IGF1R and other tyrosine kinase inhibitors can inhibit the proliferation of certain cancer cell lines indicating their possible therapeutic utility for treating the corresponding cancer types. Cancer cell lines of interest and control normal lines, including CHO, HEK293, BA/F3, COLO205, PC3, DU145, MCF7, Panc1, ACHN, Hep G2, H460, K562, TT, U87-MG, CAOV-3, SK-MEL5, Karpas 299 and human multiple myeloma cell lines H929, MM1s, MM1r, UTMC2, CPM2, KMS11, My5, KMS12PE, My7, JJN3, KMS18, U266, SKMM2, RPMI-8226 are plated in white, clear-bottomed 384-well cell culture plates at 2500-5000 cells per well and supplied with dilutions of tested compounds After a desired period of time (typically 3 days), the number of viable cells is quantitated by using Cell Titer-Glo Luminescent Cell Viability Assay (Promega), a cell proliferation assay system based on detection of total amount of ATP present as a measure of cell metabolic activity. The plated cells are mixed with the Cell Titer-Glo developing reagent and counted in a luminescence multiwell plate reader according to the standard manufacturer's protocol to generate IC50 curves for cell proliferation inhibition. Results are typically reported as percent of growth (% viability =(OD72h(compound)−ODday0))/(OD72h(no compound)−ODday0). Alternatively, viable cells are quantitated by using the conventional colorimetric MTT assay. The MTT assay is based on the cleavage of the yellow tetrazolium salt MTT to purple formazan crystal by metabolic active cells. The formazan is then solubilized, and the concentration determined by optical density at 570 nm. The cells plated and incubated with a compound as described above are supplemented with the solution of MTT and incubated for 2-3 hours. The growth medium is removed and dimethyl sulfoxide is added into each well to dissolve the formazan. The absorbance is measured on an ELISA plate reader with a test wavelength of 570 nm and a background subtraction wavelength of 630 nm to obtain sample signal (OD570-OD630). […] The results are reported in terms of IC50 value for a particular compound and a cell line in the standard 3-day proliferation assay using Cell Titer-Glo. […] The results are reported in terms of IC50 value for a particular compound and a cell line in the standard 3-day proliferation assay using MTT assay.

IGF1R tyrosine kinase = target: T3, IGF1R tyrosine kinase (Homo sapiens, UniProt P08069); assay: IGF1R tyrosine kinase assay (Kinase-Glo ATP depletion or PT66/PT100 AlphaScreen); conditions: biochemical tyrosine kinase assay
T3 construct: 6×His- or GST-tagged kinase domain fragments of the corresponding RTKs expressed in baculovirus system; host or cells: baculovirus system
T3 sequence (P08069 999-1274 limits assumed): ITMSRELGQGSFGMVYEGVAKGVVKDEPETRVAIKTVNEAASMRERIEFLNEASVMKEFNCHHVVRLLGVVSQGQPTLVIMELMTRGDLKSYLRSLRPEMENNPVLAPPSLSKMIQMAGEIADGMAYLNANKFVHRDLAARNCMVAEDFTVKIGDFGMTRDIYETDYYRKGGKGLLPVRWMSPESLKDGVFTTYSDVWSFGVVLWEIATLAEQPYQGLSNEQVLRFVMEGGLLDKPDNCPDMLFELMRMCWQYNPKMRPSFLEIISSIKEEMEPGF
Method in brief: as §1

Karpas-299 = assay: Cell proliferation inhibition, Cell Titer-Glo, Karpas-299; type: cell-based; conditions: Homo sapiens; cell proliferation assay, Karpas-299 cells
Method in brief: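 Karpas 299 cells were seeded into white, clear-bottomed 384-well culture plates at 2500-5000 cells per well and exposed to serial dilutions of test compounds for about 3 days. Viable cell numbers were then measured with the Cell Titer-Glo Luminescent Cell Viability Assay (Promega), which detects total ATP, and IC50 values for proliferation inhibition were derived.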

Ba/F3 = assay: Cell proliferation inhibition, Cell Titer-Glo, Ba/F3; type: cell-based; conditions: Mus musculus, BaF3; cell proliferation assay, Ba/F3 cells
Method in brief: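 Ba/F3 cells were seeded at 2500-5000 cells per well in white, clear-bottomed 384-well culture plates and exposed to serial dilutions of test compounds for 3 days. Cell Titer-Glo Luminescent Cell Viability Assay (Promega) reagent, which measures total ATP as an indicator of metabolic activity, was added. Luminescence was read on a multiwell plate reader to derive IC50 values for inhibition of proliferation.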

Jak2 = target: T4, Jak2 (Homo sapiens, UniProt O60674); assay: Tyrosine kinase assay (Kinase-Glo or AlphaScreen), Jak2; conditions: biochemical tyrosine kinase assay
T4 construct: 6×His- or GST-tagged kinase domain fragments of the corresponding RTKs expressed in baculovirus system; host or cells: baculovirus system
T4 sequence (O60674 849-1124 limits assumed, species assumed): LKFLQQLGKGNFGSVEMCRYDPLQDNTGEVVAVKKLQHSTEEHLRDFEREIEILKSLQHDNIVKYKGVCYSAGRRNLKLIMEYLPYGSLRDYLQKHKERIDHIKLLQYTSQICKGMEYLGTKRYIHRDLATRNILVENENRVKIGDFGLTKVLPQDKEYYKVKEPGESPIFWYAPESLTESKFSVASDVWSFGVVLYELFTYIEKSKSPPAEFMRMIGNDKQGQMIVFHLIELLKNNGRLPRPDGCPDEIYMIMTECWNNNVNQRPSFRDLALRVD
Method in brief: as §1

Structure (SMILES)	IC50 (Alk) [µM]	IC50 (InsR) [µM]	IC50 (K562) [µM]	IC50 (H929 (multiple myeloma)) [µM]	IC50 (IGF1R tyrosine kinase) [µM]	IC50 (Karpas-299) [µM]	IC50 (Ba/F3) [µM]	IC50 (Jak2) [µM]
CN1CCC(N2C(=O)c3cc4nc(-c5c(NCC(O)COc6cccc(Cl)c6)cc[nH]c5=O)[nH]c4cc3C2=O)CC1 (centres unmarked) [compound 38]	0.5 to 5	0.5 to 5	5 to 15	0.5 to 5	0.5 to 5	> 15	> 15	0.5 to 5
Cc1ccc(OC[C@H](O)CNc2cc[nH]c(=O)c2-c2nc3cc4c(cc3[nH]2)C(=O)N(CCCN2CCCC2)C4=O)c2c1CCC2 [compound 114]	0.5 to 5	< 0.5	> 15	> 15	< 0.5	> 15	> 15	0.5 to 5
COC[C@@H](C)N1C(=O)c2cc3nc(-c4c(NC[C@@H](O)c5cccc(Cl)c5)cc[nH]c4=O)[nH]c3cc2C1=O [compound 30]	> 15	> 15	> 15	> 15	> 15	> 15	> 15	> 15
Cc1c(Cl)cccc1OC[C@H](O)CNc1cc[nH]c(=O)c1-c1nc2cc3c(cc2[nH]1)C(=O)N(C1CCN(CCN(C)C)CC1)C3=O [compound 127]	0.5 to 5	0.5 to 5	> 15	> 15	< 0.5	> 15	> 15	0.5 to 5
CN(C)CC(C)(C)CN1C(=O)c2cc3nc(-c4c(NC[C@@H](O)c5cccc(Cl)c5)ccnc4O)[nH]c3cc2C1=O [compound 60]	5 to 15	0.5 to 5	> 15		0.5 to 5	> 15	> 15	0.5 to 5
CSCc1cc(C)cc(C)c1OC[C@H](O)CNc1cc[nH]c(=O)c1-c1nc2cc3c(cc2[nH]1)C(=O)N(C1CCN(C)CC1)C3=O [compound 81]	0.5 to 5	5 to 15	> 15		0.5 to 5	5 to 15	5 to 15	5 to 15
Cc1ccc(OC[C@H](O)CNc2ccnc(O)c2-c2nc3cc4c(cc3[nH]2)C(=O)N(C2CCN(C)CC2)C4=O)c2c1CCC2 [compound 85]	0.5 to 5	< 0.5	0.5 to 5		< 0.5	0.5 to 5	0.5 to 5	0.5 to 5
COc1cc(F)ccc1OC[C@@H](O)CNc1ccnc(O)c1-c1nc2cc3c(cc2[nH]1)C(=O)N(C1CCN(C)CC1)C3=O [compound 58]	0.5 to 5	0.5 to 5	5 to 15		0.5 to 5	5 to 15	5 to 15	5 to 15
Cc1ccc(OCC(O)CNc2ccnc(O)c2-c2nc3cc4c(cc3[nH]2)C(=O)N(CCCn2cccn2)C4=O)c(C)c1 (centres unmarked) [compound 63]	0.5 to 5	> 15	> 15		> 15	> 15	> 15	> 15
CN1CCC(N2C(=O)c3cc4nc(-c5c(NC[C@@H](O)COc6ccc(F)c(Cl)c6)ccnc5O)[nH]c4cc3C2=O)CC1 [compound 74]	5 to 15	0.5 to 5	0.5 to 5		0.5 to 5	0.5 to 5	0.5 to 5	0.5 to 5
